Experimental data: PubChem BioAssay AID2060896 (Molecular Pharmacology Branch, DTP, NCI, 2025)

Test system: 941728-121-R-J1-PDC complex spheroid viability
Experiment: Anticancer human tumor 941728-121-R-J1-PDC patient-derived lung adenocarcinoma cell line growth inhibition [RAS]
Settings: for IC50: curve of first compound; for viability, T/C: stronger effect = lower value
Description: RAS pathway inhibitors in Combinations in Complex Spheroids
A high-throughput screen of multi-cell type tumor spheroids was designed to identify active combinations of RAS pathway inhibitors and targeted small molecules. Complex spheroids include a stromal component modeled by human endothelial cells (HUVEC) and fibroblasts modeled by human mesenchymal stem cells (MSCs). The concentration ranges selected for each drug and investigational agent were based upon clinically achievable concentrations if the clinical Cmax of the agent was known.
Compounds. The drugs and investigational agents: abemaciclib (NSC768073), cobimetinib (NSC768068), divarasib (GDC6063, NSC841802), docetaxel (NSC628503), GDC-1971 (RLY-1971, NSC841576), gemcitabine (NSC613327), inavolisib (NSC800729), ipatasertib (NSC767898), KB-0742 (NSC834161), MRTX-1133 (NSC836407), osimertinib (NSC779217), RMC-4630 (NSC839698), RMC-6236 (NSC851965), RMC-6291 (NSC852671), Ro-3306 (NSC812927), sapanisertib (NSC764658), SN-38 (NSC673596), staurosporine (NSC755774), SY5609 (NSC837396), and tovorafenib (DAY101, NSC766906), were obtained from the National Cancer Institute (NCI) Developmental Therapeutics Program Chemical Repository. The FDA-approved anticancer drug set is available from the NCI Developmental Therapeutics Program. […] The stock solutions were prepared in dimethyl sulfoxide (DMSO, Sigma-Aldrich, St. Louis, MO, cat. D2650) at 800-fold the tested concentration and stored at -70 degrees C prior to their use. All drugs and investigational agents were tested over a range starting from a high concentration at or near the clinical Cmax and decreasing in half-log increments. If the clinical Cmax for an agent had not been determined, the highest concentration tested was 10 microM.
Cell Culture. All cells were maintained in an incubator at 37 degrees C and 5% CO2 with 95% humidity. The PDC lines were cultured according to standard operating procedures established by the NCI PDMR. All PDCs were thawed and cultured in Matrigel-coated flasks prepared with a working solution of 1X Ham's F-12 nutrient mix, without supplementation (Invitrogen, Waltham, MA, cat. 11765054), 100 U/mL penicillin-streptomycin (Invitrogen, cat. 15140122), and 2.5% Matrigel (Corning Inc., Corning, NY, cat. 354248) for the first three passages. The 362531-283-R-J2-PDC and 782815-120-R-J1-PDC lines were cultured in 6C/Colon 1B media, which includes advanced DMEM/F-12 (Thermo Fisher Scientific, cat. 12634028), 10 mM HEPES (Thermo Fisher Scientific, cat. 15630080), 1X GlutaMAX supplement (Thermo Fisher Scientific, cat. 35050061), 0.1 mg/mL primocin (InvivoGen, San Diego, CA, cat. ant-pm-2), 10% defined fetal bovine serum, heat inactivated (HyClone Laboratories Inc., Logan, UT, cat. SH30070.03HI), 50% L-WRN conditioned media (ATCC, cat. CRL-3276), 1.25 mM N-Acetyl-L-cysteine (Sigma-Aldrich, cat. A9165), 10 mM nicotinamide (Sigma-Aldrich, cat. N0636), 1X B-27 supplement (Thermo Fisher Scientific, cat. 17504044), 1X N-2 supplement (Thermo Fisher Scientific, cat. 17502048), 50 ng/mL human EGF (Thermo Fisher Scientific, cat. PHG0311), and 10 microM Y-27632 dihydrochloride (Tocris Bioscience, cat. 1254). The K12877-001-R-J1-PDC line was cultured in 6I media, which includes all 6C/Colon 1B media plus 10 ng/mL human FGF-10 (PeproTech, cat. 100-26), 1 ng/mL human FGF-2 (PeproTech, cat. 100-18B), 1 µM prostaglandin E2 (Tocris Bioscience, cat. 2296), […] hydrocortisone (Sigma-Aldrich, cat. H4001), and […] bovine insulin (Sigma-Aldrich, cat. I6634). The K86415-001-R-J1-PDC line was cultured in 6D media, which includes all 6C/Colon 1B media components minus the L-WRN conditioned media. The 485176-168-R4-J1-PDC was cultured in PANC media, which includes all 6C/Colon 1B media plus 100 ng/mL human FGF-10 (PeproTech, cat. 100-26), 500 nM SB-431542 (Selleckchem, cat. S1067), and 10 nM gastrin (Tocris Bioscience, cat. 3006). […]

[1] = second compound 0.0316 µM, first compound 0.0316 µM
[2] = second compound 0.0316 µM, first compound 0.1 µM
[3] = second compound 0.0316 µM, first compound 0.316 µM
[4] = second compound 0.0316 µM, first compound 1 µM
[5] = second compound 0.0316 µM, first compound 3.16 µM
[6] = second compound 0.0316 µM, first compound 10 µM
[7] = second compound 0.1 µM, first compound 0.0316 µM
[8] = second compound 0.1 µM, first compound 0.1 µM
[9] = second compound 0.1 µM, first compound 0.316 µM
[10] = second compound 0.1 µM, first compound 1 µM
[11] = second compound 0.1 µM, first compound 3.16 µM
[12] = second compound 0.1 µM, first compound 10 µM
[13] = second compound 0.316 µM, first compound 0.0316 µM
[14] = second compound 0.316 µM, first compound 0.1 µM
[15] = second compound 0.316 µM, first compound 0.316 µM
[16] = second compound 0.316 µM, first compound 1 µM
[17] = second compound 0.316 µM, first compound 3.16 µM
[18] = second compound 0.316 µM, first compound 10 µM
[19] = second compound 1 µM, first compound 0.0316 µM
[20] = second compound 1 µM, first compound 0.1 µM
[21] = second compound 1 µM, first compound 0.316 µM
[22] = second compound 1 µM, first compound 1 µM
[23] = second compound 1 µM, first compound 3.16 µM
[24] = second compound 1 µM, first compound 10 µM
[25] = second compound 3.16 µM, first compound 0.0316 µM
[26] = second compound 3.16 µM, first compound 0.1 µM
[27] = second compound 3.16 µM, first compound 0.316 µM
[28] = second compound 3.16 µM, first compound 1 µM
[29] = second compound 3.16 µM, first compound 3.16 µM
[30] = second compound 3.16 µM, first compound 10 µM
[31] = second compound 10 µM, first compound 0.0316 µM
[32] = second compound 10 µM, first compound 0.1 µM
[33] = second compound 10 µM, first compound 0.316 µM
[34] = second compound 10 µM, first compound 1 µM
[35] = second compound 10 µM, first compound 3.16 µM
[36] = second compound 10 µM, first compound 10 µM
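Note: spheroids exposed to compounds for 7 days before readout.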
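Throughout, for viability, T/C: 100% = DMSO vehicle control viability.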

CC1(O)CCCC1n1c(=O)c(C(F)F)cc2cnc(NC3CCN(S(C)(=O)=O)CC3)nc21 (centres undefined) + C#Cc1c(F)ccc2cc(O)cc(-c3ncc4c(N5CC6CCC(C5)N6)nc(OCC56CCCN5CC(F)C6)nc4c3F)c12
IC50 (second compound 0.0316 µM): 6750 nM | IC50 (second compound 0.1 µM): 6760 nM | IC50 (second compound 0.316 µM): > 10000 nM | IC50 (second compound 1 µM): < 31.6 nM | IC50 (second compound 3.16 µM): < 31.6 nM | IC50 (second compound 10 µM): < 31.6 nM | viability, T/C [1]: 69.8% | viability, T/C [2]: 75% | viability, T/C [3]: 71.9% | viability, T/C [4]: 80.1% | viability, T/C [5]: 81.7% | viability, T/C [6]: 36.7% | viability, T/C [7]: 69.4% | viability, T/C [8]: 72% | viability, T/C [9]: 62.6% | viability, T/C [10]: 68.7% | viability, T/C [11]: 75.7% | viability, T/C [12]: 40% | viability, T/C [13]: 56.2% | viability, T/C [14]: 51.5% | viability, T/C [15]: 51.2% | viability, T/C [16]: 65.6% | viability, T/C [17]: 65% | viability, T/C [18]: 39.9% | viability, T/C [19]: 44.2% | viability, T/C [20]: 38.9% | viability, T/C [21]: 46.9% | viability, T/C [22]: 50.3% | viability, T/C [23]: 55.3% | viability, T/C [24]: 36% | viability, T/C [25]: 30.1% | viability, T/C [26]: 33% | viability, T/C [27]: 36.5% | viability, T/C [28]: 36.9% | viability, T/C [29]: 38.5% | viability, T/C [30]: 28.6% | viability, T/C [31]: 25.6% | viability, T/C [32]: 26.6% | viability, T/C [33]: 28% | viability, T/C [34]: 28.1% | viability, T/C [35]: 28% | viability, T/C [36]: 24%

CCC(CC)c1cc(NC2CCC(N)C2)n2nccc2n1 (centres undefined) + C#Cc1c(F)ccc2cc(O)cc(-c3ncc4c(N5CC6CCC(C5)N6)nc(OCC56CCCN5CC(F)C6)nc4c3F)c12
IC50 (second compound 0.0316 µM): 2100 nM | IC50 (second compound 0.1 µM): 1970 nM | IC50 (second compound 0.316 µM): 1470 nM | IC50 (second compound 1 µM): < 31.6 nM | IC50 (second compound 3.16 µM): < 31.6 nM | IC50 (second compound 10 µM): < 31.6 nM | viability, T/C [1]: 96.6% | viability, T/C [2]: 82.6% | viability, T/C [3]: 91.4% | viability, T/C [4]: 90.5% | viability, T/C [5]: 19.2% | viability, T/C [6]: 36.7% | viability, T/C [7]: 96.1% | viability, T/C [8]: 79% | viability, T/C [9]: 78.5% | viability, T/C [10]: 84.1% | viability, T/C [11]: 20.8% | viability, T/C [12]: 31.4% | viability, T/C [13]: 60.9% | viability, T/C [14]: 83.7% | viability, T/C [15]: 59.5% | viability, T/C [16]: 63.1% | viability, T/C [17]: 18.4% | viability, T/C [18]: 29.7% | viability, T/C [19]: 40.1% | viability, T/C [20]: 40.1% | viability, T/C [21]: 41.4% | viability, T/C [22]: 46.2% | viability, T/C [23]: 18.7% | viability, T/C [24]: 32.7% | viability, T/C [25]: 31.5% | viability, T/C [26]: 33.1% | viability, T/C [27]: 37.6% | viability, T/C [28]: 35.8% | viability, T/C [29]: 15.3% | viability, T/C [30]: 34.3% | viability, T/C [31]: 23.2% | viability, T/C [32]: 25.9% | viability, T/C [33]: 27.2% | viability, T/C [34]: 25.6% | viability, T/C [35]: 11.4% | viability, T/C [36]: 25.6%
